Experimental data as given in EP4671240A1, “SALT CONTAINING AROMATIC RING DERIVATIVE ANTAGONIST, PREPARATION METHOD THEREFOR, AND APPLICATION THEREOF” (Jiangsu Hansoh Pharmaceutical Group Co., Ltd., priority 2023, dated 2024).

Tests used:
Assay type in all cases: in vitro ADME
[1] = Liver microsomal metabolism stability assay (human); conditions: compound 1 µM; for half-life at 1 µM: human liver microsomes 0.5 mg/mL, NADPH/UDPGA, read-out: Human t1/2; for Human Remaining rate: human liver microsomes, 60 min
Procedure: The objective of this experiment was to detect the stability of the example compounds in liver microsomes of rats, dogs and humans.
Formulation of compound working solution: compound stock solution was added to phosphate buffer to a final concentration of 20 µM.
Dilution was performed with 100 mM phosphate buffer to a final concentration of 0.625 mg/mL.
NADPH (reduced nicotinamide adenine dinucleotide phosphate) and UDPGA (uridine diphosphate glucuronic acid) were weighed, and 100 mM phosphate buffer was added to a final concentration of 20 mM.
1 mg of Alamethicin was weighed, and 200 µL of DMSO was added to formulate a 5 mg/mL solution. Then dilution was performed with phosphate buffer to a final concentration of 50 µg/mL.
Stop solution: cold acetonitrile containing 100 ng/mL labetalol hydrochloride and 400 ng/mL tolbutamide as internal standards.
400 µL of formulated liver microsomes, 25 µL of compound working solution and 25 µL of Alamethicin were added in sequence to a 96-well plate, and the mixture was pre-incubated at 37°C for 10 min. Then 50 µL of formulated NADPH/UDPGA was added to start the reaction and the mixture was incubated at 37°C. The total volume of the reaction system was 500 µL. The final contents of each component are as follows:
• Instrument: Shimadzu LC-30 AD; • Chromatographic column: XBridge® C18 (50*4.6 mm, 5 µm particle size); • Mobile phase: A: 0.1% formic acid solution, B: methanol • Elution gradient: 0.2-1.6 min 5% A to 95% A, 3.0-3.1 min 95% A to 5% A • Run time: 4.0 min.
• Instrument: API5500 liquid chromatography-mass spectrometer, AB Sciex; • Ion source: electrospray ionization source (ESI); • Drying gas: N2, temperature 500°C; • Electrospray voltage: 5000 V; • Detection mode: positive ion detection; • Scan mode: Multiple Reaction Monitoring (MRM) mode.

[2] = molecular target: T1, CYP450 1A2 (Homo sapiens, UniProt P05177); experiment: CYP enzyme single-point inhibition assay, 1A2; conditions: human liver microsomes, single-point method
T1 construct: Human liver microsome incubation system was used; from tissue; host or cells: human liver microsomes
T1 sequence (P05177 1-516): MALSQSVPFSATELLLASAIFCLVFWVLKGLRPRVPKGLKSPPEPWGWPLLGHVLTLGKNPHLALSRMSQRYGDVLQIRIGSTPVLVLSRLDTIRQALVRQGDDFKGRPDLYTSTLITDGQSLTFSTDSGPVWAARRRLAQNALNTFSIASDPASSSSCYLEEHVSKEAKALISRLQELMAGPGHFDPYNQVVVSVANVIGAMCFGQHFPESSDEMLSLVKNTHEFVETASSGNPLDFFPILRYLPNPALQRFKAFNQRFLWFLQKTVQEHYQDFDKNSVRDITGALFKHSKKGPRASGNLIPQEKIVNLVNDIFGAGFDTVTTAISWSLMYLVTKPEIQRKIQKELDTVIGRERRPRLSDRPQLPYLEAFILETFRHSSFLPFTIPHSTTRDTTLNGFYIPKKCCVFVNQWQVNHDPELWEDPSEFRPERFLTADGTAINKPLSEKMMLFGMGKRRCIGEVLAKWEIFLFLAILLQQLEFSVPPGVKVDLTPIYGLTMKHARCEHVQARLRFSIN
Procedure: (§1) Human liver microsome incubation system was used, and the single-point method was used to quickly predict the inhibition on CYP450 enzyme subtypes (1A2, 2C19, 2D6, 3A4-M, and 3A4-T) by compounds.
(§2) For 2.5 mM NADPH, 4.165 mg of NADPH (reduced nicotinamide adenine dinucleotide phosphate) was weighed and 100 mM phosphate buffer was added to a final volume of 2 mL. For 0.25 mg/mL microsomes, 50 µL of 20 mg/mL microsomes was mixed with […] of 100 mM phosphate buffer evenly.
(§3) The test example compounds were weighed, diluted to 10 mM with DMSO, and then diluted to 100 µM with 100 mM phosphate buffer.
(§4) • 1. Liver microsomes (40 µL), substrate (10 µL), and test compound (10 µL) were added to a 96-well plate, and the mixture was pre-incubated for 3 min. • 2. NADPH (40 µL) was added. • 3. At 20 min, acetonitrile stop solution containing internal standard (300 µL) was added. • 4. The mixture was centrifuged and the sample was loaded.

[3] = molecular target: T2, CYP450 2D6 (Homo sapiens, UniProt P10635); experiment: CYP enzyme single-point inhibition assay, 2D6; conditions: human liver microsomes, single-point method
T2 construct: Human liver microsome incubation system was used; from tissue; host or cells: human liver microsomes
T2 sequence (P10635 whole entry): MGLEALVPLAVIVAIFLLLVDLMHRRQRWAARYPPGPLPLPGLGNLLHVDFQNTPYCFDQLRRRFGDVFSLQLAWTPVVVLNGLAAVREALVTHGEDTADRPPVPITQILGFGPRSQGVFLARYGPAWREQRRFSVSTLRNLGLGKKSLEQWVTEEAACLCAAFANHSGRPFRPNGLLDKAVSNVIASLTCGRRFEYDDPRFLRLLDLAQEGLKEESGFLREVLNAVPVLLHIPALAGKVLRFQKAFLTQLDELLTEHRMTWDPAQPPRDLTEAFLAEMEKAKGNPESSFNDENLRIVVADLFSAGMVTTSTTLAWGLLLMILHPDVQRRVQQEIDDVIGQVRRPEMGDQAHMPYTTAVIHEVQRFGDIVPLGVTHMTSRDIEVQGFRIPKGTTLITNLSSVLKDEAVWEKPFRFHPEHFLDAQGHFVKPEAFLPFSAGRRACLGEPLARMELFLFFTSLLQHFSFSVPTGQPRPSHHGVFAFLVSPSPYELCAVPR
Procedure: as §1, §2, §3, §4

[4] = molecular target: T3, CYP450 3A4-M (Homo sapiens, UniProt P08684); experiment: CYP enzyme single-point inhibition assay, 3A4-M; conditions: human liver microsomes, single-point method
T3 construct: Human liver microsome incubation system was used; from tissue; host or cells: human liver microsomes
T3 sequence (P08684 whole entry): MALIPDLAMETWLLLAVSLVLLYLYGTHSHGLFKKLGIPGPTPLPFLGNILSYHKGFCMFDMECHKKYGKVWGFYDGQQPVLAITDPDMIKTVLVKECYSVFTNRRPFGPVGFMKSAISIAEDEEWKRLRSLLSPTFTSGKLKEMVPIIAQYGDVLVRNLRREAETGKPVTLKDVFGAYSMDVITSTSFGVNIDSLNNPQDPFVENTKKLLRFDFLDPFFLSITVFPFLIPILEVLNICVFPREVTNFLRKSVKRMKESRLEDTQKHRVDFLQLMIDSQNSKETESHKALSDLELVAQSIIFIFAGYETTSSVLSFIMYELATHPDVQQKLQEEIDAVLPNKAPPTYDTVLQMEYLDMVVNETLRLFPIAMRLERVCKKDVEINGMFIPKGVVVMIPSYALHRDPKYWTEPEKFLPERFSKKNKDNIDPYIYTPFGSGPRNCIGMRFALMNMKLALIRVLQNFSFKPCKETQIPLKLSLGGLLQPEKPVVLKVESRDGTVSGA
Procedure: as §1, §2, §3, §4

[5] = molecular target: T4, CYP450 3A4-T (Homo sapiens, UniProt P08684); experiment: CYP enzyme single-point inhibition assay, 3A4-T; conditions: human liver microsomes, single-point method
T4 construct: Human liver microsome incubation system was used; from tissue; host or cells: human liver microsomes
T4 sequence (P08684 whole entry): as above
Procedure: as §1, §2, §3, §4

SMILES | half-life at 1 µM [1] [min] | Human Remaining rate [1] [%] | IC50 [2] [µM] | IC50 [3] [µM] | IC50 [4] [µM] | IC50 [5] [µM]
[2H]C([2H])(c1ccc(-c2ccccc2S(=O)(=O)Nc2noc(C)c2Cl)c(COCC)c1)N1C(=O)C2(CCCC2)N=C1CCCC [Example 2, 4'-((2-Butyl-4-oxo-1,3-diazaspiro[4.4]non-1-en-3-yl)methyl-d2)-N-(4-chloro-5-methylisoxazol-3-yl)-2'-(ethoxymethyl)-[1,1'-biphenyl]-2-sulfonamide] | 38.5 | 33.0 | > 100 | > 100 | 14.7 | > 100
CCCCC1=NC2(CCCC2)C(=O)N1Cc1ccc(-c2ccccc2S(=O)(=O)Nc2noc(C)c2Cl)c(COCC)c1 [Example 8, 2-[4-[(2-Butyl-4-oxo-1,3-diazaspiro[4.4]non-1-en-3-yl)methyl]-2-(ethoxymethyl)phenyl]-N-(4-chloro-5-methyl-isoxazol-3-yl)benzenesulfonamide] | 36.5 | 32.0 | > 100 | > 100 | 24.9 | > 100
